# System: sugar cane seedlings
# Assay: Growth of sugar cane seedlings treated in the greenhouse, then transplanted to the field
# Assay type: in vivo
# Excerpt: On an area of 0.1 hectares where sugar cane plants were growing with a distance between the rows of approximately 1.5 m, the top part of the 8 months old sugar cane plants was removed by chopping off with a machete in a height of approximately 2-2.5 m. The removed top part was discarded. After 30 days, on the below, remaining stalks, shoots (“1st generation”) had developed from the buds. The top parts (approximately 30 cm) of these shoots were removed by cutting. New shoots (“2nd generation”) developed from the cut shoots of the 1st generation. 30 days after cutting the top part of the 1st generation shoots, the 2nd generation shoots were removed by cutting them off closely to the nodes. On average, every node had produced three 2nd generation shoots. The removed 2nd generation shoots were each placed in pots filled with humid coconut fibers. The pots were placed in a greenhouse, and seedlings were grown from the planted shoots at 25-35° C. and 70-80% humidity. While in the greenhouse, the shoots/seedlings were watered sufficiently. One part of the seedlings was treated once with pyraclostrobin (in form of the commercial product Comet®; EC; 250 g/l) by immersing the entire tray containing the planted shoots for 10 min into a solution containing 4 ml of Comet® concentrate per l; i.e. 1 g pyraclostrobin per l. Another part of the seedlings remained untreated (control). 30 to 45 days after having been placed in the greenhouse, the surviving seedlings were transferred to an acclimatization area and kept for 15 days. Then they were counted and transplanted to a field. In sum 96,000 seedlings had been obtained. This number was sufficient for planting an area of 6.4 hectares with the same distance between the rows and the plants in the rows as in the originating field. […] 20 days after transplanting, the plant height of the treated and untreated plants was determined.
smiles,measurement,setting,value
COC(=O)N(OC)c1ccccc1COc1ccn(-c2ccc(Cl)cc2)n1 [pyraclostrobin],Plant height,"1 g a.i./l, planted shoots immersed once for 10 min, height determined 20 days after transplanting to the field",38.3 cm
same,colour and vigour of the seedlings / young plants,"treated once while in the greenhouse, 1 g pyraclostrobin per l, compared with untreated seedlings","more intense, greener color and were more vigorous"
same,increase in plant height,"versus untreated control, 1 g pyraclostrobin per l, 20 days after transplanting",more than 30%

# Reference: patent publication US9271448B2, “Method for cultivating sugar cane” (BASF SE, priority 2010, dated 2016)
